According to ChEMBL document CHEMBL1147043, “Comparative metabolism of radiolabeled muraglitazar in animals and humans by quantitative and qualitative metabolite profiling” (Drug Metab Dispos, 2007):

Legend:
[1] = Drug concentration in Sprague-Dawley rat feces assessed as recovery of radioactive dose at 11 mg/kg, po after 168 hrs; type: ADME, organism-based; design: dose 11 mg/kg, route oral; conditions: in vivo
Hepatocyte [2] = experiment: Metabolic stability in human hepatocytes assessed as 12-hydroxy-O-demethyl muraglitazar level by LC/MS analysis relative to control; type: ADME, cell-based
Plasma [3] = experiment: Biodistribution in orally dosed cynomolgus monkey plasma assessed as O-demethyl muraglitazar glucuronide level after 12 hrs by LC/MS analysis; type: ADME, organism-based, Macaca fascicularis; conditions: in vivo, po
[4] = Biodistribution in orally dosed human urine assessed as O-dealkyl-O-demethyl muraglitazar level by LC/MS analysis; type: ADME, organism-based; conditions: in vivo, po
Plasma [5] = experiment: Biodistribution in orally dosed cynomolgus monkey plasma assessed as […] muraglitazar level after 1 hr by LC/MS analysis; type: ADME, organism-based, Macaca fascicularis; conditions: in vivo, po
Plasma [6] = experiment: Biodistribution in orally dosed Beagle dog plasma assessed as muraglitazar glucuronide level after 1 hr by LC/MS analysis; type: ADME, organism-based, Canis lupus familiaris; conditions: in vivo, po
Plasma [7] = experiment: Biodistribution in orally dosed cynomolgus monkey plasma assessed as 12-dihydroxy muraglitazar level after 12 hrs by LC/MS analysis; type: ADME, organism-based, Macaca fascicularis; conditions: in vivo, po
Cynomolgus monkey = experiment: AUC (0 to T) in cynomolgus monkey at 1.9 mg/kg, po after 24 hrs; type: ADME, organism-based, Macaca fascicularis, Plasma; design: time < 24 hr, dose 1.9 mg/kg, route oral; conditions: in vivo
Plasma [8] = experiment: Biodistribution in orally dosed Beagle dog plasma assessed as 12-dihydroxy muraglitazar level after 12 hrs by LC/MS analysis; type: ADME, organism-based, Canis lupus familiaris; conditions: in vivo, po
[9] = Metabolic stability in cynomolgus monkey hepatocytes assessed as hydroxyl muraglitazar glucuronide level by LC/MS analysis relative to control; type: ADME, cell-based, Macaca fascicularis, Hepatocyte
Rattus norvegicus [10] = experiment: Biodistribution in orally dosed Sprague-Dawley rat urine assessed as 17-hydroxy muraglitazar level by LC/MS analysis; type: ADME, organism-based; conditions: in vivo, po
[11] = Biodistribution in orally dosed cynomolgus monkey feces assessed as 9-hydroxy muraglitazar level by LC/MS analysis; type: ADME, organism-based, Macaca fascicularis; conditions: in vivo, po
Plasma [12] = experiment: Biodistribution in orally dosed cynomolgus monkey plasma assessed as 12-hydroxy-O-demethyl muraglitazar level after 12 hrs by LC/MS analysis; type: ADME, organism-based, Macaca fascicularis; conditions: in vivo, po
Hepatocyte [13] = experiment: Metabolic stability in human hepatocytes assessed as 9-hydroxy muraglitazar level by LC/MS analysis relative to control; type: ADME, cell-based
Rattus norvegicus [14] = experiment: Biodistribution in orally dosed Sprague-Dawley rat urine assessed as muraglitazar 12-carboxylic acid level by LC/MS analysis; type: ADME, organism-based; conditions: in vivo, po
Plasma [15] = experiment: Biodistribution in orally dosed Beagle dog plasma assessed as 12-hydroxy-O-demethyl muraglitazar level after 4 hrs by LC/MS analysis; type: ADME, organism-based, Canis lupus familiaris; conditions: in vivo, po
[16] = Metabolic stability in CD1 mouse hepatocytes assessed as O-dealkyl-O-demethyl muraglitazar level by LC/MS analysis relative to control; type: ADME, cell-based, Hepatocyte
[17] = Metabolic stability in CD1 mouse hepatocytes assessed as 12-hydroxy-O-demethyl muraglitazar level by LC/MS analysis relative to control; type: ADME, cell-based, Hepatocyte
[18] = Drug concentration in Sprague-Dawley rat urine at 11 mg/kg, po after 12 hrs; type: ADME, organism-based; design: dose 11 mg/kg, route oral; conditions: read-out: Drug uptake
Hepatocyte [19] = experiment: Metabolic stability in Sprague-Dawley rat hepatocytes assessed as 8-hydroxy-O-demethyl muraglitazar level by LC/MS analysis relative to control; type: ADME, cell-based
[20] = Metabolic stability in CD1 mouse hepatocytes assessed as 17-hydroxy muraglitazar level by LC/MS analysis relative to control; type: ADME, cell-based, Hepatocyte
[21] = Biodistribution in orally dosed human feces assessed as 17-hydroxy muraglitazar level by LC/MS analysis; type: ADME, organism-based; conditions: in vivo, po
[22] = Metabolic stability in CD1 mouse hepatocytes assessed as radioactivity recovaries at 25.6 ug/mL after 4 hrs; type: ADME, cell-based, Hepatocyte
Rattus norvegicus [23] = experiment: Biodistribution in orally dosed Sprague-Dawley rat feces assessed as 8-hydroxy-O-demethyl muraglitazar level by LC/MS analysis; type: ADME, organism-based; conditions: in vivo, po
Plasma [24] = experiment: Biodistribution in orally dosed human plasma assessed as 12-hydroxy-O-demethyl muraglitazar level after 4 hrs by LC/MS analysis; type: ADME, organism-based; conditions: in vivo, po
Plasma [25] = experiment: Biodistribution in orally dosed Beagle dog plasma assessed as O-Dealkyl muraglitazar level after 1 hr by LC/MS analysis; type: ADME, organism-based, Canis lupus familiaris; conditions: in vivo, po
Hepatocyte [26] = experiment: Metabolic stability in human hepatocytes assessed as hydroxyl-O-demethyl muraglitazar glucuronide level by LC/MS analysis relative to control; type: ADME, cell-based
[27] = Drug concentration in human urine at 10 mg/kg, po after 8 hrs; type: ADME, organism-based; design: dose 10 mg/kg, route oral; conditions: read-out: Drug uptake
[28] = Drug concentration in Beagle dog urine assessed as recovery of radioactive dose at 1.9 mg/kg, po after 168 hrs; type: ADME, organism-based, Canis lupus familiaris; design: dose 1.9 mg/kg, route oral; conditions: in vivo
Plasma [29] = experiment: Biodistribution in orally dosed human plasma assessed as muraglitazar 12-carboxylic acid level after 4 hrs by LC/MS analysis; type: ADME, organism-based; conditions: in vivo, po
[30] = Biodistribution in orally dosed human feces assessed as O-dealkyl muraglitazar level by LC/MS analysis; type: ADME, organism-based; conditions: in vivo, po
[31] = Drug concentration in human feces assessed as recovery of radioactive dose at 20 mg, po after 240 hrs; type: ADME, organism-based; conditions: in vivo
[32] = Biodistribution in orally dosed Beagle dog feces assessed as 17-hydroxy muraglitazar level by LC/MS analysis; type: ADME, organism-based, Canis lupus familiaris; conditions: in vivo, po
Hepatocyte [33] = experiment: Metabolic stability in human hepatocytes assessed as 17-hydroxy-O-demethyl muraglitazar level by LC/MS analysis relative to control; type: ADME, cell-based
Hepatocyte [34] = experiment: Metabolic stability in human hepatocytes assessed as hydroxyl muraglitazar glucuronide level by LC/MS analysis relative to control; type: ADME, cell-based
Rattus norvegicus [35] = experiment: Biodistribution in orally dosed Sprague-Dawley rat urine assessed as 12-hydroxy-O-demethyl muraglitazar level by LC/MS analysis; type: ADME, organism-based; conditions: in vivo, po
[36] = Biodistribution in orally dosed cynomolgus monkey urine assessed as 17-hydroxy muraglitazar level by LC/MS analysis; type: ADME, organism-based, Macaca fascicularis; conditions: in vivo, po
[37] = Metabolic stability in cynomolgus monkey hepatocytes assessed as 12-hydroxy-O-demethyl muraglitazar level by LC/MS analysis relative to control; type: ADME, cell-based, Macaca fascicularis, Hepatocyte
Hepatocyte [38] = experiment: Metabolic stability in Sprague-Dawley rat hepatocytes assessed as O-demethyl muraglitazar level by LC/MS analysis relative to control; type: ADME, cell-based
[39] = Biodistribution in orally dosed cynomolgus monkey feces assessed as acetylimide derivative of muraglitazar level by LC/MS analysis; type: ADME, organism-based, Macaca fascicularis; conditions: in vivo, po
[40] = Drug concentration in human urine assessed as recovery of radioactive dose at 20 mg, po after 240 hrs; type: ADME, organism-based; conditions: in vivo
Hepatocyte [41] = experiment: Metabolic stability in Sprague-Dawley rat hepatocytes assessed as 8-hydroxy muraglitazar level by LC/MS analysis relative to control; type: ADME, cell-based
[42] = Metabolic stability in CD1 mouse hepatocytes assessed as hydroxyl-O-demethyl muraglitazar glucuronide level by LC/MS analysis relative to control; type: ADME, cell-based, Hepatocyte
Canis familiaris = experiment: AUC (0 to T) in Beagle dog at 2 mg/kg, po after 4 hrs; type: ADME, organism-based, Canis lupus familiaris, Plasma; design: time < 4 hr, dose 2 mg/kg, route oral; conditions: in vivo
Plasma [43] = experiment: Biodistribution in orally dosed human plasma assessed as muraglitazar glucuronide level after 4 hrs by LC/MS analysis; type: ADME, organism-based; conditions: in vivo, po
[44] = Biodistribution in orally dosed cynomolgus monkey feces assessed as muraglitazar glucuronide level by LC/MS analysis; type: ADME, organism-based, Macaca fascicularis; conditions: in vivo, po
Rattus norvegicus [45] = experiment: Biodistribution in orally dosed Sprague-Dawley rat urine assessed as 12-hydroxy muraglitazar level by LC/MS analysis; type: ADME, organism-based; conditions: in vivo, po
[46] = Biodistribution in orally dosed cynomolgus monkey feces assessed as 17-hydroxy muraglitazar level by LC/MS analysis; type: ADME, organism-based, Macaca fascicularis; conditions: in vivo, po
[47] = Fecal excretion of compound in bile duct-cannulated orally dosed cynomolgus monkey within 48 hrs; type: ADME, organism-based, Macaca fascicularis; conditions: faeces, po, read-out: Activity
Rattus norvegicus [48] = experiment: Cmax in Sprague-Dawley rat at 10 mg/kg, po after 24 hrs; type: ADME, organism-based; design: dose 10 mg/kg, route oral; conditions: in vivo
[49] = Metabolic stability in cynomolgus monkey hepatocytes assessed as hydroxyl-O-demethyl muraglitazar glucuronide level by LC/MS analysis relative to control; type: ADME, cell-based, Macaca fascicularis, Hepatocyte
[50] = Drug concentration in Sprague-Dawley rat urine assessed as recovery of radioactive dose at 11 mg/kg, po after 168 hrs; type: ADME, organism-based; design: dose 11 mg/kg, route oral; conditions: in vivo

COc1ccc(OC(=O)N(CC(=O)O)Cc2ccc(OCCc3nc(-c4ccccc4)oc3C)cc2)cc1 [MURAGLITAZAR]
Drug uptake [1]: 87.7% | Drug uptake (Hepatocyte [2]): < 0.2% | Drug uptake (Plasma [3]): 0.4% | Drug uptake [4]: 0.04% | Drug uptake (Plasma [5]): 0.9% | Drug uptake (Plasma [6]): < 0.05% | Drug uptake (Plasma [7]): 0.4% | AUC (Cynomolgus monkey): 71 ugequiv.h/ml | Drug uptake (Plasma [8]): 9% | Drug uptake [9]: 2.8% | Drug uptake (Rattus norvegicus [10]): < 0.01% | Drug uptake [11]: 0.56% | Drug uptake (Plasma [12]): 2.7% | Drug uptake (Hepatocyte [13]): 0.5% | Drug uptake (Rattus norvegicus [14]): < 0.01% | Drug uptake (Plasma [15]): 1% | Drug uptake [16]: 5.7% | Drug uptake [17]: 3% | dose excreted at 12 h [18]: 0.51% | Drug uptake (Hepatocyte [19]): < 0.2% | Drug uptake [20]: 5.4% | Drug uptake [21]: 5.92% | Stability [22]: 95.6% | Drug uptake (Rattus norvegicus [23]): 9.65% | Drug uptake (Plasma [24]): 0.3% | Drug uptake (Plasma [25]): 2% | Drug uptake (Hepatocyte [26]): < 0.2% | dose excreted at 8 h [27]: 1.3% | Drug uptake [28]: 0.5% | Drug uptake (Plasma [29]): 0.2% | Drug uptake [30]: 0.8% | Drug uptake [31]: 50.7% | Drug uptake [32]: 1.78% | Drug uptake (Hepatocyte [33]): 1.6% | Drug uptake (Hepatocyte [34]): 0.2% | Drug uptake (Rattus norvegicus [35]): 0.01% | Drug uptake [36]: 0.59% | Drug uptake [37]: < 0.2% | Drug uptake (Hepatocyte [38]): 2.2% | Drug uptake [39]: 0.16% | Drug uptake [40]: 3.7% | Drug uptake (Hepatocyte [41]): < 0.2% | Drug uptake [42]: < 0.2% | AUC (Canis familiaris): 1.1 ugequiv.h/ml | Drug uptake (Plasma [43]): 4.2% | Drug uptake [44]: 0.8% | Drug uptake (Rattus norvegicus [45]): 0.03% | Drug uptake [46]: 25.73% | dose excreted at 48 h [47]: 15% | Cmax (Rattus norvegicus [48]): 13.5 ugequiv/ml | Drug uptake [49]: < 0.2% | Drug uptake [50]: 1%
